Key:
[1] = biological target: T1, 5-HT1A receptors (Homo sapiens, UniProt P08908); assay: 5-HT1A receptor radioligand binding assay ([3H]-8-OH DPAT); conditions: HEK 293 cells expressing 5-HT1A receptors; [3H]-8-OH DPAT 1 nM; 37° C., 45 minutes; read-out: pKi at 5-HT1A receptors (converted)
T1 construct: expressed in transfected cells; host or cells: HEK 293 cells
T1 sequence (P08908 1-422): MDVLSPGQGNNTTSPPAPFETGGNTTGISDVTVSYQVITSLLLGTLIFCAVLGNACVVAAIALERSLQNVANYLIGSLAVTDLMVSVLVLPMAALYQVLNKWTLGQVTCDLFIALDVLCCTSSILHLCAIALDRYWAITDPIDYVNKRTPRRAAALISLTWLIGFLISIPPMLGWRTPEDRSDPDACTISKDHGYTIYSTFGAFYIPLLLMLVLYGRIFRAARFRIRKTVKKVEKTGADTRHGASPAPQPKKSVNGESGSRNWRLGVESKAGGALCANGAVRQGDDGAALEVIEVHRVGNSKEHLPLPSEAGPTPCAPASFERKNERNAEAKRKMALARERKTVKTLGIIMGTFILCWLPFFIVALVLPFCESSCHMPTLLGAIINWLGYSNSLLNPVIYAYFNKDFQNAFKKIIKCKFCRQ
Protocol: (§1) The affinities of the compounds of this invention for the 5HT1A, 5-HT1B and 5-HT1D receptors can be determined by the following radioligand binding assay. HEK 293 cells expressing 5-HT1A receptors (4×10^7/ml) are homogenised in Tris buffer and stored in 1 ml aliquots. CHO cells expressing 5-HT1B receptors (4×10^7 cells/ml) are homogenised in Tris buffer and stored in 1.5 ml aliquots. CHO cells expressing 5-HT1D receptors (0.563×10^8/ml) are homogenised in Tris buffer and stored in 1 ml aliquots. 0.4 ml of a cell suspension is incubated with [^3H]-5-HT (4 nM) for 5-HT1B/1D receptors and [^3H]-8-OH DPAT (1 nM) for 5-HT1A receptors in Tris Mg HCl buffer (pH 7.7) and test drug, at 37° C. for 45 minutes. Each test drug is tested at 10 concentrations (0.01 mM to 0.3 nM final concentration), with non-specific binding defined using 0.01 mM 5-HT. The total assay volume is 0.5 ml. Incubation is stopped by rapid filtration using a Packard Filtermate (filters pre-soaked in 0.3% polyethylenimine) and radioactivity measured by Topcount scintillation counting. pKi values are calculated from the IC50 generated by an iterative least squares curve fitting programme.
(§2) The affinities of the compounds of this invention were determined by methods described above.
(§3) 5-HT1A, 5-HT1B and 5-HT1D Receptor Binding

[2] = biological target: T2, 5-HT1B receptors (Homo sapiens, UniProt P28222); assay: 5-HT1B receptor radioligand binding assay ([3H]-5-HT); conditions: CHO cells expressing 5-HT1B receptors; [3H]-5-HT 4 nM; 37° C., 45 minutes; read-out: pKi at 5-HT1B receptors (converted)
T2 construct: expressed in transfected cells; host or cells: CHO cells
T2 sequence (P28222 whole entry): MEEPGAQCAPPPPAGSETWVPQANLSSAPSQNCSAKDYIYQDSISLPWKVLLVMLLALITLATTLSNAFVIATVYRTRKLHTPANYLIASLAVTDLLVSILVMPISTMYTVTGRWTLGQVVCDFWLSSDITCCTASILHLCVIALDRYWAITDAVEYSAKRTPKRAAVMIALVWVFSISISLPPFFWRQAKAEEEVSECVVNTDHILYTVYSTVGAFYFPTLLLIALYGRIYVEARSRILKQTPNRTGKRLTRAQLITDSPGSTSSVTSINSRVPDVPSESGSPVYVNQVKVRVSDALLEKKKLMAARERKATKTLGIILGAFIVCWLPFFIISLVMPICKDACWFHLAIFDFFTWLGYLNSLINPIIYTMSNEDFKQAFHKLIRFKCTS
Protocol: as §1, §2, §3

[3] = biological target: T3, 5-HT1D receptors (Homo sapiens, UniProt P28221); assay: 5-HT1D receptor radioligand binding assay ([3H]-5-HT); conditions: CHO cells expressing 5-HT1D receptors; [3H]-5-HT 4 nM; 37° C., 45 minutes; read-out: pKi at 5-HT1D receptors (converted)
T3 construct: expressed in transfected cells; host or cells: CHO cells
T3 sequence (P28221 whole entry): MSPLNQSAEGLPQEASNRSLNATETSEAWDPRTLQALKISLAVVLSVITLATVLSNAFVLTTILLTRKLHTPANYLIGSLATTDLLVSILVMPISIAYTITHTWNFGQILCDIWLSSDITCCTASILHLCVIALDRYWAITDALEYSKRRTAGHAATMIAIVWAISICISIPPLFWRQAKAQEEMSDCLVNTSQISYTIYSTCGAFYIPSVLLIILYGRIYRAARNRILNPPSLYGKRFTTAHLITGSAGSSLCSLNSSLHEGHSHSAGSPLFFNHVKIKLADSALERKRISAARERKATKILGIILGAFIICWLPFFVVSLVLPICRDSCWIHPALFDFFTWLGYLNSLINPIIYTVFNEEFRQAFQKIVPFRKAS
Protocol: as §1, §2, §3

Measured: Ki

CN1CC=C(c2csc3ccc(NC(=O)Nc4ccc(-c5ccncc5)c5ccccc45)cc23)CC1 [Example 10, N-[3-(1-Methyl-1,2,5,6-tetrahydropyridin-4-yl)benzo[b]thiophen-5-yl]-N′-[4-(pyridin-4-yl)naphth-1-yl]-urea]
< 10 nM: all assays above

CN1CCC(c2c[nH]c3ccc(NC(=O)Nc4ccc(-c5ccncc5)c(Cl)c4)cc23)CC1 [Example 8, N-[3-Chloro-4-(pyridin-4-yl)phenyl]-N′-[3-(1-methylpiperidin-4-yl)indol-5-yl]-3-urea]
< 10 nM: all assays above

CN1CCC(c2csc3ccc(NC(=O)Nc4ccc(-c5ccncc5)c5ccccc45)cc23)CC1 [Example 12, N-[3-(1-Methylpiperidin-4-yl)benzo[b]thiophen-5-yl]-N′-[-4-(pyridin-4-yl)naphth-1-yl]-urea]
< 10 nM: all assays above

CN1CCC(c2c[nH]c3ccc(NC(=O)Nc4ccc(-c5ccncc5)c(Cl)c4Cl)cc23)CC1 [Example 3, N-[2,3-Dichloro-4-(pyridin-4-yl)phenyl]-N′-[3-(1-methylpiperidin-4-yl)indol-5-yl]-urea]
< 10 nM: all assays above

CN1CC=C(c2csc3ccc(NC(=O)Nc4ccc(-c5ccncc5)c(Cl)c4)cc23)CC1 [Example 9, N-[3-Chloro-4-(pyridin-4-yl)phenyl]-N′-[3-(1-methyl-1,2,5,6-tetrahydropyridin-4-yl)benzo[b]thiophen-5-yl]-urea]
< 10 nM: all assays above

CN1CCC(c2c[nH]c3ccc(NC(=O)Nc4ccc(-c5ccncc5)c5ccccc45)cc23)CC1 [Example 1, N-[3-(1-Methylpiperdin-4-yl)indol-5-yl]-N′-[4-(pyridin-4-yl)naphth-1-yl]-urea]
< 10 nM: all assays above

CN1CCC(c2c[nH]c3ccc(NC(=O)Nc4ccc(-c5ccncc5)cc4Cl)cc23)CC1 [Example 4, N-[2-Chloro-4-(pyridin-4-yl)phenyl]-N′-[3-(1-methylpiperidin-4-yl)indol-5-yl]-urea]
< 10 nM: all assays above

Source: patent US6391891B1, “Bicyclic compounds as ligands for 5-HT1 receptors” (SmithKline Beecham plc, priority 1997, dated 2002)
